From the supplement of paper PMC10307832

Experiments:
Experiment in all cases: relative viability (nuclei count vs DMSO), 5 days (fraction); higher = more cells survive
NCI-H522 = tested on: NCI-H522
Method in brief: (§1)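 Lung cancer cell lines were seeded in 1536-well plates and dosed by pin tool the next day, with either a single drug or a fixed anchor-drug dose combined with five library-drug doses (not always all listed) spaced in √10 steps. Five days later, one step fixed the cells and stained their nuclei (final 0.05% Triton X-100, 1% formaldehyde, 1 ug/ml Hoechst), and nuclei were counted on 4× images. Relative viability is the nuclei count in treated wells divided by the count in vehicle wells, and each value is the median of duplicate plates.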

NCI-H1944 = tested on: NCI-H1944
Method in brief: as §1

LOU-NH91 = tested on: LOU-NH91
Method in brief: as §1

NCI-H2170 = tested on: NCI-H2170
Method in brief: as §1

LCLC-103H = tested on: LCLC-103H
Method in brief: as §1

NCI-H358 = tested on: NCI-H358
Method in brief: as §1

SK-MES-1 = tested on: SK-MES-1
Method in brief: as §1

NCI-H1993 = tested on: NCI-H1993
Method in brief: as §1

NCI-H2023 = tested on: NCI-H2023
Method in brief: as §1

COR-L 105 = tested on: COR-L 105
Method in brief: as §1

LXF-289 = tested on: LXF-289
Method in brief: as §1

Work on `CCNC(=O)c1noc(-c2cc(C(C)C)c(O)cc2O)c1-c1ccc(CN2CCOCC2)cc1` [Luminespib] + Cc1nc(Nc2ncc(C(=O)Nc3c(C)cccc3Cl)s2)cc(N2CCN(CCO)CC2)n1 [Dasatinib] (partner 0.075 µM) yielded a relative viability (NCI-H522; first compound 0.002 µM) of 1.1, a relative viability (NCI-H522; first compound 0.006325 µM) of 0.936 and a relative viability (NCI-H522; first compound 0.02 µM) of 0.776. The relative viability (NCI-H522; first compound 0.06325 µM) was 0.577, the relative viability (NCI-H522; first compound 0.2 µM) was 0.481 and the relative viability (NCI-H1944; first compound 0.002 µM) was 0.195. The relative viability (NCI-H1944; first compound 0.006325 µM) was 0.232, the relative viability (NCI-H1944; first compound 0.02 µM) was 0.169 and the relative viability (NCI-H1944; first compound 0.06325 µM) was 0.107. For the same compound, the relative viability (NCI-H1944; first compound 0.2 µM) was 0.132, the relative viability (LOU-NH91; first compound 0.002 µM) was 0.517 and the relative viability (LOU-NH91; first compound 0.006325 µM) was 0.543. It also gave a relative viability (LOU-NH91; first compound 0.02 µM) of 0.388, a relative viability (LOU-NH91; first compound 0.06325 µM) of 0.258 and a relative viability (LOU-NH91; first compound 0.2 µM) of 0.29. It also gave a relative viability (NCI-H2170; first compound 0.002 µM) of 0.503, a relative viability (NCI-H2170; first compound 0.006325 µM) of 0.578 and a relative viability (NCI-H2170; first compound 0.02 µM) of 0.308. The relative viability (NCI-H2170; first compound 0.06325 µM) was 0.163, the relative viability (NCI-H2170; first compound 0.2 µM) was 0.106 and the relative viability (LCLC-103H; first compound 0.002 µM) was 0.493. It also gave a relative viability (LCLC-103H; first compound 0.006325 µM) of 0.491, a relative viability (LCLC-103H; first compound 0.02 µM) of 0.41 and a relative viability (LCLC-103H; first compound 0.06325 µM) of 0.536. It also gave a relative viability (LCLC-103H; first compound 0.2 µM) of 0.529, a relative viability (NCI-H358; first compound 0.002 µM) of 0.149 and a relative viability (NCI-H358; first compound 0.006325 µM) of 0.164. It also gave a relative viability (NCI-H358; first compound 0.02 µM) of 0.0956, a relative viability (NCI-H358; first compound 0.06325 µM) of 0.0558 and a relative viability (NCI-H358; first compound 0.2 µM) of 0.0633. For the same compound, the relative viability (SK-MES-1; first compound 0.002 µM) was 0.333, the relative viability (SK-MES-1; first compound 0.006325 µM) was 0.376 and the relative viability (SK-MES-1; first compound 0.02 µM) was 0.217. The relative viability (SK-MES-1; first compound 0.06325 µM) was 0.0911, the relative viability (SK-MES-1; first compound 0.2 µM) was 0.0956 and the relative viability (NCI-H1993; first compound 0.002 µM) was 0.633. For the same compound, the relative viability (NCI-H1993; first compound 0.006325 µM) was 0.534, the relative viability (NCI-H1993; first compound 0.02 µM) was 0.431 and the relative viability (NCI-H1993; first compound 0.06325 µM) was 0.331. It also gave a relative viability (NCI-H1993; first compound 0.2 µM) of 0.353, a relative viability (NCI-H2023; first compound 0.002 µM) of 0.589 and a relative viability (NCI-H2023; first compound 0.006325 µM) of 0.525. For the same compound, the relative viability (NCI-H2023; first compound 0.02 µM) was 0.198, the relative viability (NCI-H2023; first compound 0.06325 µM) was 0.0548 and the relative viability (NCI-H2023; first compound 0.2 µM) was 0.0529. For the same compound, the relative viability (COR-L 105; first compound 0.002 µM) was 0.344, the relative viability (COR-L 105; first compound 0.006325 µM) was 0.322 and the relative viability (COR-L 105; first compound 0.02 µM) was 0.248. For the same compound, the relative viability (COR-L 105; first compound 0.06325 µM) was 0.157, the relative viability (COR-L 105; first compound 0.2 µM) was 0.145 and the relative viability (LXF-289; first compound 0.002 µM) was 0.271. It also gave a relative viability (LXF-289; first compound 0.006325 µM) of 0.238, a relative viability (LXF-289; first compound 0.02 µM) of 0.187 and a relative viability (LXF-289; first compound 0.06325 µM) of 0.0634.
